Measurements from paper PMC5651845, “A New Generation of Arachidonic Acid Analogues as Potential Neurological Agent Targeting Cytosolic Phospholipase A2” (Scientific Reports, 2017).

Assays:
recombinant cPLA2 [1] = molecular target: T1, recombinant cPLA2 (Homo sapiens, UniProt P47712); assay: EnzChek phospholipase A2 fluorogenic assay (% activity) at 10 μM; type: biochemical; settings: 10 μM compound
T1 construct: purchased US Biological P4074-03R
T1 sequence (P47712 1-749): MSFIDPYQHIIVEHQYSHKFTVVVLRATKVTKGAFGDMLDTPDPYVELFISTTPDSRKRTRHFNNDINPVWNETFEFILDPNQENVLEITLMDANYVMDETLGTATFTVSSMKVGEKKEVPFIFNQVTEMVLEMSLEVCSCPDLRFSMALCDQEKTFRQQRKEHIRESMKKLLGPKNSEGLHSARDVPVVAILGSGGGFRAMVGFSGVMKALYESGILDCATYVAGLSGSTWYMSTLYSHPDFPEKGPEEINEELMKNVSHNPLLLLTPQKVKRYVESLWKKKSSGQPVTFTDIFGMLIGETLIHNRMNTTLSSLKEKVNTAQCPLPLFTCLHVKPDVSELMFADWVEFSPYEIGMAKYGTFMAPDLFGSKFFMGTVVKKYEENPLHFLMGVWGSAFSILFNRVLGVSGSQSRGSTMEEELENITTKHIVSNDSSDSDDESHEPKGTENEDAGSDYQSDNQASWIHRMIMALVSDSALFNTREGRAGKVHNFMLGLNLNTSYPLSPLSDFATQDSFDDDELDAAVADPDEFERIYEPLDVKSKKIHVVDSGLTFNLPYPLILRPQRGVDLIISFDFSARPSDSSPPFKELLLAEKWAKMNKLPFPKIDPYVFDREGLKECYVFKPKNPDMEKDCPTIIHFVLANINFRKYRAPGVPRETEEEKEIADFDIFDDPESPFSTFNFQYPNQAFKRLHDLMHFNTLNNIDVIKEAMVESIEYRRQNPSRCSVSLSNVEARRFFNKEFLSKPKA
Procedure: The compounds were evaluated with a fluorogenic PLA2 assay kit (EnzChek® Phospholipase A2 Assay Kit, Catalog No: E10217) at a standard 10 μM concentration. Potential inhibitors were determined by their ability to lower cPLA2 activity to a greater extent than 1a.
The assay was conducted according to the manufacturer’s instruction (E10217, Molecular Probes) with slight modification. Briefly, substrate solution was separately prepared by mixing 5 μL of DOPG, 5 μL of DOPC and 5 μL of substrate respectively in 1.5 mL of 1X phospholipase A2 reaction buffer. The mixture was vortexed vigorously for 3 min before allowing to stand at room temperature for 1 h. 48 μL of 1X phospholipase A2 reaction buffer were added into each well of a 96-wells plate. This was followed by addition of 1 μL of recombinant cPLA2 (P4074-03R, US Biological) and 1 μL of 1 mM of the respective compound dissolved in DMSO. The final concentration of the test compound achieved is 10 μM. The reaction was initiated by adding 50 μL of the substrate solution and incubating at room temperature for 1 h. Fluorescence was measured using a Varioskan plate reader (Thermo Scientific, MA, USA) by exciting at 485 nm, while fluorescence emission was detected at 515 nm. Positive control was performed when 1 μL of test compound was replaced by vehicle DMSO. % activity was expressed as the mean value of duplicate wells from three experiments. % activity was calculated by the following formula1 %activity=fluorescenceoftestedwell−background/fluorescenceofpostivecontrol−background

recombinant cPLA2 [2] = molecular target: T1, recombinant cPLA2; assay: EnzChek phospholipase A2 fluorogenic assay (IC50); type: biochemical
Procedure: The assay was conducted as described above. Instead of adding a fixed concentration of the test compound, various concentrations of compound were reconstituted in DMSO. 48 μL of 1X phospholipase A2 reaction buffer were added into each well of a 96-wells plate. This was followed by addition of 1 μL of recombinant cPLA2 (P4074-03R, US Biological) and 1 μL of the respective concentration of the test compound dissolved in DMSO. The reaction was initiated by adding 50 μL of the substrate solution and incubating at room temperature for 1 h. Fluorescence was measured using a Varioskan plate reader by exciting at 485 nm, while fluorescence emission was detected at 515 nm. Positive control was performed when 1 μL of test compound was replaced by vehicle DMSO. IC50 was expressed as the mean value of duplicate wells from three experiments.

BV-2 cells = assay: MTS cell proliferation assay on BV-2 cells; type: cell-based, murine; settings: 10 μM, 48 h and 72 h, vs vehicle control
Procedure: (§1) To explore whether the inhibitors are cytotoxic, MTS assay were conducted on BV-2 cells, a murine microglial cell line derived from post-natal mouse cerebella, and HEK293T cells that are derived from human embryonic kidney. Both cell types were treated with 10 μM of 1a, 2g and 2i for 48 h and 72 h (Fig. 3A,B). Dimethyl sulfoxide (DMSO) vehicle control was also included as the compounds were dissolved in DMSO.
(§2) Cells were plated on a 96-wells plate and grown for 24 h to a density of 8000 cells per well for both HEK293T and BV-2 cells. Cells were cultured at 37 °C under a 5% CO2 environment in 100 μL of culture medium. Thereafter, the compound of interest dissolved in culture medium at a concentration of 10 μM was replaced into each well. DMSO was added as vehicle in the control group. 3 biological replicates were performed. The plates were then incubated at 37 °C with 5% CO2 for 48 h and 72 h. At each individual time point, 20 μL of CellTiter 96® AQueous One Solution (MTS reagent) was added into each well and re-incubated at 37 °C with 5% CO2 without light for 3 h. Colorimetric readings were taken using a Varioskan plate reader at 490 nm and analyzed. Three independent biological repeats with four technical replicates were performed.

HEK293T cells = assay: MTS cell proliferation assay on HEK293T cells; type: cell-based, human; settings: 10 μM, 48 h and 72 h, vs vehicle control
Procedure: as §1, §2

[3] = molecular target: T2, sPLA2, human recombinant type V (Homo sapiens, UniProt P39877); assay: EnzChek phospholipase A2 fluorogenic assay (selectivity) with sPLA2; type: biochemical; settings: 10 μM
T2 construct: purchased Cayman Chemical 10009563
T2 sequence (P39877 21-138): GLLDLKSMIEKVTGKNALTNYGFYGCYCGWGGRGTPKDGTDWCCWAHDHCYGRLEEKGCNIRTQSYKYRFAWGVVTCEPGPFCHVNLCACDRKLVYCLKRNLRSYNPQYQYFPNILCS
Procedure: To further explore their selectivity towards cPLA2, 10 μM of 2g and 2i were evaluated for their inhibition against recombinant sPLA2 using the fluorogenic PLA2 assay (Fig. 3C).
The assay was conducted as described above. Instead of adding cPLA2, it was replaced by sPLA2. 48 μL of 1X phospholipase A2 reaction buffer was added into each well of a 96-wells plate. This was followed by addition of 1 μL of sPLA2, human recombinant type V (10009563, Cayman Chemical) and 1 μL of 1 mM of the respective compound or thioetheramide-PC (62750, Cayman Chemical) dissolved in DMSO. The final concentration of the test compound achieved is 10 μM. The reaction was initiated by adding 50 μL of the substrate solution and incubating at room temperature for 1 h. Fluorescence was measured using a Varioskan plate reader by exciting at 485 nm, while fluorescence emission was detected at 515 nm. Positive control was performed when 1 μL of test compound was replaced by vehicle DMSO. % activity was expressed as the mean value of duplicate wells from four experiments. % activity was calculated by the following formula:2 %activity=fluorescenceoftestedwell−background/fluorescenceofpostivecontrol−background

[4] = molecular target: T2, sPLA2, human recombinant type V; set-up: method as in PMID 2303420; settings: cited from earlier work

| inhibition at 10 µM (recombinant cPLA2 [1]) [%] | remaining activity at 10 µM (recombinant cPLA2 [1]; 1 h, room temperature) [%] | IC50 (recombinant cPLA2 [2]) [µM] | fold stronger cPLA2 inhibition than 1a (from IC50) (recombinant cPLA2 [2]; relative to 1a) [fold] | sPLA2 activity ([3]; relative to DMSO control) [%] | reduction of sPLA2 activity [3] [%] | Compound | cytotoxicity (MTS) on BV-2 cells (BV-2 cells) | cytotoxicity (MTS) on HEK293T cells (HEK293T cells) | IC50 [4] [µM] |
| --- | --- | --- | --- | --- | --- | --- | --- | --- | --- |
| 84.5 | 15.5 ± 0.3 | 5.3 ± 0.3 | 3 | 184 | – | CCCCC/C=C\C/C=C\C/C=C\C/C=C\CCCCC(=O)NCCCCC(=O)O [2g] | no significant toxic effects | no significant toxic effects | – |
| – | – | – | – | – | 62 | CCCCCCCCCCCCCCCCSC[C@H](COP(=O)(O)OCC[N+](C)(C)C)NC(=O)CCCCCCCCCCCCCCC [Thioetheramide-PC, reference compound] | – | – | 2 |
